From PubChem BioAssay AID280 (DTP/NCI, 2004)
“And” between values parts separate entries of the source, which are not always exact repeats. Equal entries are not always repeated. Toxic doses and inconclusive results are not listed.

System: nude mice, LOX melanoma ip, survival T/C
Assay: NCI In Vivo Anticancer Drug Screen. Data for tumor model Human Amelanotic Melanoma (LOX) (intraperitoneal) in NU/NU BALB/C (nude) mice
Details: endpoint: median survival time, higher = longer survival
Description: The antitumor activity of compounds was measured in mice bearing transplantable tumors. Survival or tumor size were measured and the results are expressed as the measurement made in the treated group (T) divided by the measurement made in the vehicle treated control group (C). The tumor model used in this assay is Human Amelanotic Melanoma (LOX) (intraperitoneal) in NU/NU BALB/C (nude) mice

[1] = dose: 75.0 mg/kg/injection, schedule: Q04DX003 (ip), vehicle: saline
[2] = dose: 150.0 mg/kg/injection, schedule: Q04DX003 (ip), vehicle: saline
[3] = dose: 300.0 mg/kg/injection, schedule: Q04DX003 (ip), vehicle: saline
[4] = dose: 37.5 mg/kg/injection, schedule: Q04DX003 (ip), vehicle: saline with Tween-80
[5] = dose: 75.0 mg/kg/injection, schedule: Q04DX003 (ip), vehicle: saline with Tween-80
[6] = dose: 300.0 mg/kg/injection, schedule: Q04DX003 (ip), vehicle: saline with Tween-80
[7] = dose: 50.0 mg/kg/injection, schedule: Q04DX003 (ip), vehicle: Klucel (hydroxypropylcellulose) (HPC)
[8] = dose: 100.0 mg/kg/injection, schedule: Q04DX003 (ip), vehicle: Klucel (hydroxypropylcellulose) (HPC)
[9] = dose: 150.0 mg/kg/injection, schedule: Q04DX003 (ip), vehicle: saline with Tween-80

For CO[C@@]12[C@H](COC(N)=O)C3=C(C(=O)C(C)=C(N)C3=O)N1C[C@@H]1N[C@@H]12, the T/C (dose: 1.34 mg/kg/injection, schedule: Q04DX003 (ip), vehicle: saline) was 116 % of control, the T/C (dose: 1.34 mg/kg/injection, schedule: Q04DX003 (iv), vehicle: saline) was 119 % of control and the T/C (dose: 2.0 mg/kg/injection, schedule: Q04DX003 (ip), vehicle: saline) was 111 % of control. The T/C (dose: 2.0 mg/kg/injection, schedule: Q04DX003 (iv), vehicle: saline) was 166 % of control, the T/C (dose: 3.0 mg/kg/injection, schedule: Q04DX003 (ip), vehicle: saline) was 272 % of control and the T/C (dose: 3.0 mg/kg/injection, schedule: Q04DX003 (iv), vehicle: saline) was 168 % of control. For the same compound, the T/C (dose: 4.5 mg/kg/injection, schedule: Q04DX003 (ip), vehicle: saline) was 116 % of control and the T/C (dose: 4.5 mg/kg/injection, schedule: Q04DX003 (iv), vehicle: saline) was 150 % of control.

For COc1c2c(c(O)c3c4c(c(C)cc13)C1OC3(C(OC)OC5CC(C)(O)C(OC6CC(C)(O)C(O)C(C)O6)C(C)O5)OC1C(OC)(O4)C31CO1)C(=O)C(O)CC2OC1CC(C)(O)C(OC(C)=O)C(C)O1 (centres undefined), the T/C (dose: 12.5 micrograms/kg/injection, schedule: Q04DX003 (ip), vehicle: saline) was 261 % of control, the T/C (dose: 25.0 micrograms/kg/injection, schedule: Q04DX003 (ip), vehicle: saline) was 181 % of control and the T/C (dose: 50.0 micrograms/kg/injection, schedule: Q04DX003 (ip), vehicle: saline) was 107 % of control.

In the case of OCC(O)C(O)C(O)C(O)CO (centres undefined), the T/C [1] is reported as 97 % of control, the T/C [2] is reported as 102 % of control and the T/C [3] is reported as 97 % of control. For the same compound, the T/C (dose: 600.0 mg/kg/injection, schedule: Q04DX003 (ip), vehicle: saline) was 106 % of control and the T/C (dose: 1200.0 mg/kg/injection, schedule: Q04DX003 (ip), vehicle: saline) was 104 % of control.

In the case of Cn1cc(C2NC(=O)c3ccccc3N2)c2ccccc21 (centres undefined), the T/C (dose: 75.0 mg/kg/injection, schedule: Q04DX003 (ip), vehicle: Klucel (hydroxypropylcellulose) (HPC)) is reported as 110 % of control and 100 % of control, the T/C (dose: 150.0 mg/kg/injection, schedule: Q04DX003 (ip), vehicle: Klucel (hydroxypropylcellulose) (HPC)) is reported as 106 % of control and 122 % of control and the T/C (dose: 300.0 mg/kg/injection, schedule: Q04DX003 (ip), vehicle: Klucel (hydroxypropylcellulose) (HPC)) is reported as 110 % of control and 94 % of control.

In the case of COC(=O)NC1C(C)OC(OC2C/C=C(/C)C3C=CC4C(OC5CC(OC6CC(OC7CC(O)C(O)C(C)O7)C(OC7CC(O)C(OC)C(C)O7)C(C)O6)C(O)C(C)O5)C(C)CC(C)C4C3(C)/C(O)=C3\C(=O)OC4(CC(C)C(CO)=CC4/C=C\2C)C3=O)CC1(C)[N+](=O)[O-] (centres undefined), the T/C (dose: 75.0 mg/kg/injection, schedule: Q04DX003 (ip), vehicle: water) is reported as 93 % of control and the T/C (dose: 150.0 mg/kg/injection, schedule: Q04DX003 (ip), vehicle: water) is reported as 120 % of control.

For COc1cc2c(c(OC)c1OC)-c1ccc(OC)c(=O)cc1[C@@H](N)CC2, the T/C (dose: 3.75 mg/kg/injection, schedule: Q04DX003 (ip), vehicle: Klucel (hydroxypropylcellulose) (HPC)) was 102 % of control, the T/C (dose: 7.5 mg/kg/injection, schedule: Q04DX003 (ip), vehicle: Klucel (hydroxypropylcellulose) (HPC)) was 104 % of control and the T/C (dose: 15.0 mg/kg/injection, schedule: Q04DX003 (ip), vehicle: Klucel (hydroxypropylcellulose) (HPC)) was 108 % of control and 113 % of control and 116 % of control. The T/C (dose: 30.0 mg/kg/injection, schedule: Q04DX003 (ip), vehicle: Klucel (hydroxypropylcellulose) (HPC)) was 113 % of control and 114 % of control and 115 % of control, the T/C (dose: 60.0 mg/kg/injection, schedule: Q04DX003 (ip), vehicle: Klucel (hydroxypropylcellulose) (HPC)) was 114 % of control and the T/C (dose: 120.0 mg/kg/injection, schedule: Q04DX003 (ip), vehicle: Klucel (hydroxypropylcellulose) (HPC)) was 163 % of control.

For C=CCNC(=O)c1ccccc1SC(C)=O, the T/C [4] was 100 % of control, the T/C [5] was 95 % of control and the T/C [6] was 93 % of control.

CCOC(=O)c1ccc(NN=NCCF)cc1 was tested, and the T/C (dose: 75.0 mg/kg/injection, schedule: Q04DX003 (ip), vehicle: distilled water + Tween-80 + alcohol) was 111 % of control, the T/C (dose: 150.0 mg/kg/injection, schedule: Q04DX003 (ip), vehicle: distilled water + Tween-80 + alcohol) was 106 % of control and the T/C (dose: 300.0 mg/kg/injection, schedule: Q04DX003 (ip), vehicle: distilled water + Tween-80 + alcohol) was 110 % of control. The T/C (dose: 600.0 mg/kg/injection, schedule: Q04DX003 (ip), vehicle: distilled water + Tween-80 + alcohol) was 100 % of control.

COC1C(O)CC(OC2CC(Oc3cc4cc5c(c(O)c4c(O)c3C)C(=O)[C@@H](OC3CC(OC4CC(OC6CC(C)(O)C(OC(C)=O)C(C)O6)C(O)C(C)O4)C(O)C(C)O3)[C@H]([C@H](OC)C(=O)[C@@H](O)[C@@H](C)O)C5)OC(C)C2OC(C)=O)OC1C (some centres undefined) was tested, and the T/C (dose: 0.15 mg/kg/injection, schedule: Q04DX003 (ip), vehicle: Klucel (hydroxypropylcellulose) (HPC)) was 116 % of control, the T/C (dose: 0.3 mg/kg/injection, schedule: Q04DX003 (ip), vehicle: Klucel (hydroxypropylcellulose) (HPC)) was 314 % of control and the T/C (dose: 0.6 mg/kg/injection, schedule: Q04DX003 (ip), vehicle: Klucel (hydroxypropylcellulose) (HPC)) was 198 % of control.

For NC(=O)C1C=CN(Cc2ccccc2)C=C1, the T/C (dose: 50.0 mg/kg/injection, schedule: Q04DX003 (ip), vehicle: saline with Tween-80) was 112 % of control, the T/C (dose: 100.0 mg/kg/injection, schedule: Q04DX003 (ip), vehicle: saline with Tween-80) was 117 % of control and the T/C (dose: 200.0 mg/kg/injection, schedule: Q04DX003 (ip), vehicle: saline with Tween-80) was 123 % of control.

With CC(=O)C[n+]1ccccc1Sc1ccc(Cl)cc1 the T/C (dose: 1.5 mg/kg/injection, schedule: Q04DX003 (ip), vehicle: saline with Tween-80) was 95 % of control, the T/C (dose: 3.0 mg/kg/injection, schedule: Q04DX003 (ip), vehicle: saline with Tween-80) was 94 % of control and the T/C (dose: 6.0 mg/kg/injection, schedule: Q04DX003 (ip), vehicle: saline with Tween-80) was 99 % of control. For the same compound, the T/C (dose: 12.0 mg/kg/injection, schedule: Q04DX003 (ip), vehicle: saline with Tween-80) was 96 % of control and the T/C (dose: 24.0 mg/kg/injection, schedule: Q04DX003 (ip), vehicle: saline with Tween-80) was 95 % of control.

For O=c1[nH]cnc2c1cnn2CN1CCOCC1, the T/C (dose: 25.0 mg/kg/injection, schedule: Q04DX003 (ip), vehicle: Klucel (hydroxypropylcellulose) (HPC)) was 93 % of control, the T/C [7] was 123 % of control and the T/C [8] was 109 % of control.

For CN(C)CCC(=O)C(=Cc1ccc(O)cc1)C(=O)CCN(C)C, the T/C (dose: 18.75 mg/kg/injection, schedule: Q04DX003 (ip), vehicle: saline) was 100 % of control, the T/C (dose: 37.5 mg/kg/injection, schedule: Q04DX003 (ip), vehicle: saline) was 101 % of control and the T/C [1] was 112 % of control. For the same compound, the T/C [2] was 107 % of control and the T/C [3] was 103 % of control.

In the case of Cn1c2ccccc2c2ccc3c(c21)C(=O)C=CC3=O, the T/C (dose: 9.38 mg/kg/injection, schedule: Q04DX003 (ip), vehicle: saline with Tween-80) is reported as 90 % of control, the T/C (dose: 18.75 mg/kg/injection, schedule: Q04DX003 (ip), vehicle: saline with Tween-80) is reported as 94 % of control and the T/C [4] is reported as 88 % of control. The T/C [5] was 112 % of control and the T/C [9] was 100 % of control.

COC(=O)C1(F)C(=O)NC(=O)NC1OC (centres undefined) was tested, and the T/C [7] was 110 % of control, the T/C [8] was 98 % of control and the T/C (dose: 200.0 mg/kg/injection, schedule: Q04DX003 (ip), vehicle: Klucel (hydroxypropylcellulose) (HPC)) was 92 % of control. The T/C (dose: 400.0 mg/kg/injection, schedule: Q04DX003 (ip), vehicle: Klucel (hydroxypropylcellulose) (HPC)) was 104 % of control and the T/C (dose: 800.0 mg/kg/injection, schedule: Q04DX003 (ip), vehicle: Klucel (hydroxypropylcellulose) (HPC)) was 94 % of control.

For N=C1CCCS1, the T/C (dose: 10.0 mg/kg/injection, schedule: Q04DX003 (ip), vehicle: saline) was 114 % of control, the T/C (dose: 20.0 mg/kg/injection, schedule: Q04DX003 (ip), vehicle: saline) was 96 % of control and the T/C (dose: 40.0 mg/kg/injection, schedule: Q04DX003 (ip), vehicle: saline) was 102 % of control. The T/C (dose: 80.0 mg/kg/injection, schedule: Q04DX003 (ip), vehicle: saline) was 113 % of control and the T/C (dose: 160.0 mg/kg/injection, schedule: Q04DX003 (ip), vehicle: saline) was 116 % of control.

COc1cccc(Sc2ccc([N+](=O)[O-])c3no[n+]([O-])c23)c1 was tested, and the T/C [4] was 101 % of control, the T/C [5] was 120 % of control and the T/C [9] was 89 % of control. For the same compound, the T/C [6] was 101 % of control.

For Nc1ccc2ccc(NS(=O)(=O)N3CCCCC3)cc2c1, the T/C [6] was 154 % of control and the T/C (dose: 600.0 mg/kg/injection, schedule: Q04DX003 (ip), vehicle: saline with Tween-80) was 96 % of control.
